Data on three compounds can be found in US20060183754A1, “Amide bridged piphenyl or biazaphenyl derivatives” (priority 2005, published 2006).

The target in one test is T1, PPARγ (Mus musculus, UniProt P37238).
T1 construct: PPARγ (aa 174 to 476); made in house; host or cells: E. coli BL21 (pLysS)
T1 sequence (P37238 204-505): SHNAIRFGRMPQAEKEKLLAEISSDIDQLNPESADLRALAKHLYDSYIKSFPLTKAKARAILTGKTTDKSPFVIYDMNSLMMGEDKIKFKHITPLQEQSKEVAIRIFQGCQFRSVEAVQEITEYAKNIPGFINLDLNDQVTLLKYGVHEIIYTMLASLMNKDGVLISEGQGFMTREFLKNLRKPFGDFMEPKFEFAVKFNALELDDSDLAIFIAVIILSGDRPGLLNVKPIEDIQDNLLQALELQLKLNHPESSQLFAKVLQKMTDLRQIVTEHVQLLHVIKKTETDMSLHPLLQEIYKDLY
The test can be described thus: PPARγ radioligand binding assay (SPA, GST-PPARγ-LBD). The source says: (§1) Background information on the performed assays can be found in: Nichols J S et al. “Development of a scintillation proximity assay for peroxisome proliferator-activated receptor gamma ligand binding domain”, (1998) Anal. Biochem. 257: 112-119.
(§2) Full-length cDNA clones for humans PPARδ and PPARα and mouse PPARγ were obtained by RT-PCR from human adipose and mouse liver cRNA, respectively, cloned into plasmid vectors and verified by DNA sequencing. Bacterial and mammalian expression vectors were constructed to produce glutathione-s-transferase (GST) and Gal4 DNA binding domain proteins fused to the ligand binding domains (LBD) of PPARδ (aa 139 to 442), PPARγ (aa 174 to 476) and PPARα (aa 167 to 469). To accomplish this, the portions of the cloned sequences encoding the LBDs were amplified from the full-length clones by PCR and then subcloned into the plasmid vectors. Final clones were verified by DNA sequence analysis.
(§3) Induction, expression, and purification of GST-LBD fusion proteins were performed in E. coli strain BL21 (pLysS) cells by standard methods (Ref: Current Protocols in Molecular Biology, Wiley Press, edited by Ausubel et al.).
(§4) PPARγ receptor binding was assayed in TKE50 (50 mM Tris-HCl, pH 8, 50 mM KCl, 2 mM EDTA, 0.1 mg/ml fatty acid-free BSA and 10 mM DTT). For each 96 well reaction an 140 ng equivalent of GST-PPARγ-LBD fusion protein was bound to 10 μg SPA beads (PharmaciaAmersham) in a final volume of 50 ul by shaking. The resulting slurry was incubated for 1 h at RT and centrifuged for 2 min at 1300 g. The supernatant containing unbound protein was removed and the semidry pellet containing the receptor-coated beads was resolved in 50 ul of TKE. […] All binding assays were performed in 96 well plates and the amount of bound ligand measured on a Packard TopCount using OptiPlates (Packard). Nonspecific binding was determined in the presence of 10^−4 M unlabelled compound. […]

For another test, the target named is T2, PPARδ (Homo sapiens, UniProt Q03181).
T2 construct: PPARδ (aa 139 to 442); made in house; host or cells: E. coli BL21 (pLysS)
T2 sequence (Q03181 139-441 limits assumed): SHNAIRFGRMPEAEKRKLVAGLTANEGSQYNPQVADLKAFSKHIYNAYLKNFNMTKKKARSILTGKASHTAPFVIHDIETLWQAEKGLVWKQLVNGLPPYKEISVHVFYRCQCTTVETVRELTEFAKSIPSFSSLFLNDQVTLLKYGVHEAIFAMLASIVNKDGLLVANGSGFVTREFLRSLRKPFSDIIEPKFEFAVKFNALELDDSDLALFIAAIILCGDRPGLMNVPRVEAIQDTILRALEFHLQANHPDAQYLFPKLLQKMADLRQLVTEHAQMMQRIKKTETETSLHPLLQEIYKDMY
In words: PPARδ radioligand binding assay (SPA, GST-PPARδ-LBD).
From the text: as §1, §2, §3
PPARδ receptor binding was assayed in HNM10 (50 mM Hepes, pH 7.4, 10 mM NaCl, 5 mM MgCl2, 0.15 mg/ml fatty acid-free BSA and 15 mM DTT). For each 96 well reaction a 500 ng equivalent of GST-PPARδ-LBD fusion protein and radioligand, e.g. 20000 dpm {2-methyl-4-[4-methyl-2-(4-trifluoromethyl-phenyl)-thiazol-5-yl-ditritiomethylsulfanyl]-phenoxy}-acetic acid, was bound to 10 μg SPA beads (PharmaciaAmersham) in a final volume of 50 μl by shaking. The resulting slurry was incubated for 1 h at RT and centrifuged for 2 min at 1300 g. […] Radioligand was added and the reaction incubated at RT for 1 h and scintillation proximity counting performed in the presence of test compounds was determined. All binding assays were performed in 96 well plates and the amount of bound ligand was measured on a Packard TopCount using OptiPlates (Packard). […]

The next test deals with T3, PPARα (Homo sapiens, UniProt Q07869).
T3 construct: PPARα (aa 167 to 469); made in house; host or cells: E. coli BL21 (pLysS)
T3 sequence (Q07869 167-468 limits assumed): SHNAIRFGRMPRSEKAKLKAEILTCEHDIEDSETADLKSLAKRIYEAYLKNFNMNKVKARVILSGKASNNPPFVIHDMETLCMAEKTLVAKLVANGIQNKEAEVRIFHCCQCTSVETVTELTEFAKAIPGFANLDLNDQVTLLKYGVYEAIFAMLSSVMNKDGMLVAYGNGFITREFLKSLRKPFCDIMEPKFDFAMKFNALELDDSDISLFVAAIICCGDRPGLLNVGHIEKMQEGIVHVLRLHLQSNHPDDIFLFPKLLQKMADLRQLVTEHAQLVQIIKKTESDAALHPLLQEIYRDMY
In words: PPARα radioligand binding assay (SPA, GST-PPARα-LBD).
From the text: as §1, §2, §3
as §4, with “PPARα receptor” for “PPARγ receptor”, “of GST-PPARα-LBD” for “of GST-PPARγ-LBD”, “50 μl” for “50 ul”

Regarding `Cc1cc(OCCNC(=O)c2cnc(-c3ccc(C(F)(F)F)cc3)nc2C2CC2)ccc1OC(C)(C)C(=O)O` [Example 20, 2-[4-(2-{[4-Cyclopropyl-2-(4-trifluoromethyl-phenyl)-pyrimidine-5-carbonyl]-amino}-ethoxy)-2-methyl-phenoxy]-2-methyl-propionic acid], the IC50 came to 1.08 µM at PPARγ, 0.94 µM on PPARδ and 0.024 µM on PPARα.

`CC(C)(Oc1ccc(CCCC(=O)Nc2cnc(-c3ccc(C(F)(F)F)cc3)nc2C2CC2)cc1)C(=O)O` [Example 16, 2-(4-{3-[4-Cyclopropyl-2-(4-trifluoromethyl-phenyl)-pyrimidin-5-ylcarbamoyl]-propyl}-phenoxy)-2-methyl-propionic acid]: the IC50 was more than 10 µM at PPARγ, more than 10 µM at PPARδ and 0.008 µM on PPARα.

Turning to `Cc1cc(OC(C)C(=O)Nc2cccc(-c3ccc(C(F)(F)F)cc3)c2)ccc1OC(C)(C)C(=O)O` (racemic) [Example 09, [rac]-2-Methyl-2-{2-methyl-4-[1-(4′-trifluoromethyl-biphenyl-3-ylcarbamoyl)-ethoxy)-phenoxy}-propionic acid], the IC50 at PPARγ is more than 10 µM; at PPARδ it was 0.58 µM; at PPARα, 0.42 µM.
